Reference: ChEMBL document CHEMBL5365487, “Development of 18F-Labeled PET Tracer Candidates for Imaging of the Abelson Non-receptor Tyrosine Kinase in Parkinson's Disease” (J Med Chem, 2023)

How the values were obtained:
[1] = Ex vivo biodistribution in Hsd:ICR (CD-1) mouse assessed as brain uptake at 12.5 to 26.9 MBq, iv measured for 5 to 90 mins by gamma counter analysis; format: ADME, organism-based; conditions: dose lower 12.5 MBq, time lower 5 min, dose upper 26.9 MBq, time upper 90 min
[2] = In vivo stability in iv dosed Hsd:ICR (CD-1) mouse brain assessed as stability measured after 5 to 90 mins by radio-HPLC analysis; format: ADME, organism-based; conditions: time 5-90 min
[3] = In vivo stability in iv dosed Hsd:ICR (CD-1) mouse plasma assessed as stability measured after 45 mins by radio-HPLC analysis; format: ADME, organism-based; conditions: for remaining at 0.75 h: Hsd:ICR (CD-1), plasma, read-out: Stability
[4] = Ex vivo biodistribution in Hsd:ICR (CD-1) mouse assessed as brain uptake at 12.5 to 26.9 MBq, iv measured for 5 to 90 mins in presence of imidazole [1,2-alpha]pyridine by gamma counter analysis; format: ADME, organism-based; conditions: dose lower 12.5 MBq, time lower 5 min, dose upper 26.9 MBq, time upper 90 min
[5] = In vivo stability in iv dosed Hsd:ICR (CD-1) mouse plasma assessed as stability measured after 90 mins by radio-HPLC analysis; format: ADME, organism-based; conditions: for Stability: in vivo, iv
[6] = In vivo stability in iv dosed Hsd:ICR (CD-1) mouse plasma assessed as stability measured after 5 mins by radio-HPLC analysis; format: ADME, organism-based; conditions: for remaining at 5 min: Hsd:ICR (CD-1), plasma, read-out: Stability
[7] = Ex vivo biodistribution in Hsd:ICR (CD-1) mouse assessed as brain uptake at 12.5 to 26.9 MBq, iv measured for 5 mins by gamma counter analysis; format: ADME, organism-based; conditions: dose 12.5-26.9 MBq
[8] = Ex vivo biodistribution in Hsd:ICR (CD-1) mouse assessed as blood uptake at 12.5 to 26.9 MBq, iv measured after 90 mins by gamma counter analysis; format: ADME, organism-based; conditions: dose 12.5-26.9 MBq
[9] = In vivo stability in iv dosed Hsd:ICR (CD-1) mouse brain assessed as stability measured after 90 mins by radio-HPLC analysis; format: ADME, organism-based; conditions: read-out: Stability
[10] = Ex vivo biodistribution in Hsd:ICR (CD-1) mouse assessed as thigh bone uptake at 12.5 to 26.9 MBq, iv measured after 90 mins by gamma counter analysis; format: ADME, organism-based; conditions: dose 12.5-26.9 MBq
[11] = Ex vivo biodistribution in Hsd:ICR (CD-1) mouse assessed as thigh bone uptake at 12.5 to 26.9 MBq, iv measured for 5 mins by gamma counter analysis; format: ADME, organism-based; conditions: dose 12.5-26.9 MBq
[12] = In vivo stability in iv dosed Hsd:ICR (CD-1) mouse brain assessed as stability measured after 5 mins by radio-HPLC analysis; format: ADME, organism-based; conditions: read-out: Stability
[13] = Biodistribution in Hsd:ICR (CD-1) mouse assessed as brain uptake at 12.5 to 26.9 MBq, iv in presence of imidazole [1,2-alpha]pyridine measured at early time points by PET imaging analysis; format: ADME, organism-based; conditions: in vivo, dose 12.5-26.9 MBq
[14] = Ratio of total drug brain AUC to total plasma AUC in C57BL6 mouse brain at 0.5 mg/kg, iv single administration measured upto 24 hrs by LC-MS/MS analysis; format: ADME, organism-based
[15] = AUC (0 to last) in C57BL6 mouse brain at 0.5 mg/kg, iv single administration measured upto 24 hrs by LC-MS/MS analysis; format: ADME, organism-based; set-up: time < 24 hrs, dose 0.5 mg/kg, route iv
[16] = Plasma protein binding in CD-1 ISG mouse plasma measured after 4 hrs by equilibrium dialysis based LC-MS/MS analysis; format: ADME, cell-free; conditions: read-out: PPB (converted)
[17] = biological target: Receptor-interacting serine/threonine-protein kinase 2 (Homo sapiens) (UniProt O43353); assay: Inhibition of RIPK2 (unknown origin) at 1 uM by ADP-Glo kinase assay relative to control
Chain of Receptor-interacting serine/threonine-protein kinase 2 (Homo sapiens) (O43353 whole entry): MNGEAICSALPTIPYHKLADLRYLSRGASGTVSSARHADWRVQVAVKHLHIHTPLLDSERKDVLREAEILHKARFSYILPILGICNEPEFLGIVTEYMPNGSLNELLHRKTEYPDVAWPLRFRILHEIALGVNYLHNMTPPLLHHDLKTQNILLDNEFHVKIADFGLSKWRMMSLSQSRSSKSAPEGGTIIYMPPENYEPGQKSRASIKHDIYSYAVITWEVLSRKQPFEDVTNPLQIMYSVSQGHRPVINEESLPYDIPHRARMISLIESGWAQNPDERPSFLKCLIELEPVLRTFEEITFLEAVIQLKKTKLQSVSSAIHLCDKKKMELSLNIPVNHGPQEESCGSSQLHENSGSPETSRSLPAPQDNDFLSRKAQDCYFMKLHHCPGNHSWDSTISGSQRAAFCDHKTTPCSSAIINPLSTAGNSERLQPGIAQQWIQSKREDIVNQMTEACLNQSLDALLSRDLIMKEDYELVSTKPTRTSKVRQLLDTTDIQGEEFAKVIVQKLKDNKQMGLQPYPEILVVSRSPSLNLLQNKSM

[18] = biological target: Leucine-rich repeat serine/threonine-protein kinase 2 (Homo sapiens) (UniProt Q5S007); assay: Inhibition of LRRK2 (unknown origin) at 1 uM by ADP-Glo kinase assay relative to control
Chain of Leucine-rich repeat serine/threonine-protein kinase 2 (Homo sapiens) (Q5S007 whole entry): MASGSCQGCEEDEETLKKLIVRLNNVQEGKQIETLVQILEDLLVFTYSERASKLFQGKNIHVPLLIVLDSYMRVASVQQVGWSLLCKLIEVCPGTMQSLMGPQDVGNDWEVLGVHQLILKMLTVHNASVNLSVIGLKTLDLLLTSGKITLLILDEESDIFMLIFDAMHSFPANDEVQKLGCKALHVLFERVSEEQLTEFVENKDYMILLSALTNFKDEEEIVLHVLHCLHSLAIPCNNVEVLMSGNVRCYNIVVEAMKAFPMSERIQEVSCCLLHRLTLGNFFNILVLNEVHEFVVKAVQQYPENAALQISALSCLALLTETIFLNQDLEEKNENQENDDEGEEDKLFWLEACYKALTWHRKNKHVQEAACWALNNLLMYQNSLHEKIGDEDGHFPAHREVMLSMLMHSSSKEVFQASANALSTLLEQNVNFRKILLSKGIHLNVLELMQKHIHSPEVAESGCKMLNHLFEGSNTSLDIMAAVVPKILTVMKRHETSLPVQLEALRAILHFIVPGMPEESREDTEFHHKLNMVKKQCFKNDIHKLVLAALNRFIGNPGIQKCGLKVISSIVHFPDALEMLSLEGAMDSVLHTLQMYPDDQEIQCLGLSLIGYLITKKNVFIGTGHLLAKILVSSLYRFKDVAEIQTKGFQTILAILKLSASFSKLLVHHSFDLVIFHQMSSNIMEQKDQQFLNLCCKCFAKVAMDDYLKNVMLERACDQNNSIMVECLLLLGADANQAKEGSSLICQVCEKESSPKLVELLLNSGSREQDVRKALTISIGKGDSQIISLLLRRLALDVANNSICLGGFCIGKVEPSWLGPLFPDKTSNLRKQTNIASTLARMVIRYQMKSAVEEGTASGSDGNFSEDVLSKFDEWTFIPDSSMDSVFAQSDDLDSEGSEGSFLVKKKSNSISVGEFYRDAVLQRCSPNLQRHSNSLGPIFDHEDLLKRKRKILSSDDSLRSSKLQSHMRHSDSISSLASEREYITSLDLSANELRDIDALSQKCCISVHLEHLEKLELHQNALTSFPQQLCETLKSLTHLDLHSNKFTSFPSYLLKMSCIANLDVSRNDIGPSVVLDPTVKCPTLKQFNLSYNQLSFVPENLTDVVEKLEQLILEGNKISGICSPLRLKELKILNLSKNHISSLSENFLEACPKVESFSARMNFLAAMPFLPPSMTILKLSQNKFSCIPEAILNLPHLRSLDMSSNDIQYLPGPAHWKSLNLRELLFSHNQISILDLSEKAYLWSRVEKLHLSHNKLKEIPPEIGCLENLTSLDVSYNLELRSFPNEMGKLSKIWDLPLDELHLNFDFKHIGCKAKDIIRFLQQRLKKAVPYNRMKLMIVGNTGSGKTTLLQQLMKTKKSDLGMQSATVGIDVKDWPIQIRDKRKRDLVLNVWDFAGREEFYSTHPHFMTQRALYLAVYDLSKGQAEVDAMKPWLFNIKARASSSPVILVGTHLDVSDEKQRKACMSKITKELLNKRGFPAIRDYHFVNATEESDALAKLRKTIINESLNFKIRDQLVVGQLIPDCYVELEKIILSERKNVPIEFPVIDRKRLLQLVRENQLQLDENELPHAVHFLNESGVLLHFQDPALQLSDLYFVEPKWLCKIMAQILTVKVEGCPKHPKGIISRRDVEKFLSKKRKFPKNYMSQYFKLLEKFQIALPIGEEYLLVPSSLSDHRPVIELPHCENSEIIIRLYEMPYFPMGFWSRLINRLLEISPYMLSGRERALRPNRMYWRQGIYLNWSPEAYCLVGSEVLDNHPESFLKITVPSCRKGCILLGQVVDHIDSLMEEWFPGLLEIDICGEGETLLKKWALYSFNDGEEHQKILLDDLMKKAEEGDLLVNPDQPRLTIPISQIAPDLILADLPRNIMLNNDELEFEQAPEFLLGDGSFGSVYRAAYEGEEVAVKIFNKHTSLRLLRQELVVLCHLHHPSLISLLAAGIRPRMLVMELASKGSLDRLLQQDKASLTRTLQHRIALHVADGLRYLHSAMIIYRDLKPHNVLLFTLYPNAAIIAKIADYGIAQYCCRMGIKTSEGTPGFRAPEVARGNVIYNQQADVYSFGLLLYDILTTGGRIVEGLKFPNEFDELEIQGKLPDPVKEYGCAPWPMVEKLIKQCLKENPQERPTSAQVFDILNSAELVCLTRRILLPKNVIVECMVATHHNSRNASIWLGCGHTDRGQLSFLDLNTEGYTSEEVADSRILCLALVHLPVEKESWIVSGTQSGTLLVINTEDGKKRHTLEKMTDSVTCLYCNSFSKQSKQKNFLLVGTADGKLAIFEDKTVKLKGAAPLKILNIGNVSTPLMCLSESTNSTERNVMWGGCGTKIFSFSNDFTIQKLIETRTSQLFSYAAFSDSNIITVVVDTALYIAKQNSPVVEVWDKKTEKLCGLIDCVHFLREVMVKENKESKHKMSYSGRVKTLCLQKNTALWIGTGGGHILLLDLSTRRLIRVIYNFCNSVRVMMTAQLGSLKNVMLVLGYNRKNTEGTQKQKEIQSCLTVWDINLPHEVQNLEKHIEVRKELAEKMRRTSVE

[19] = biological target: Tyrosine-protein kinase Lck (Homo sapiens) (UniProt P06239); assay: Inhibition of LCK (unknown origin) at 1 uM by ADP-Glo kinase assay relative to control
Chain of Tyrosine-protein kinase Lck (Homo sapiens) (P06239 2-509 limits assumed): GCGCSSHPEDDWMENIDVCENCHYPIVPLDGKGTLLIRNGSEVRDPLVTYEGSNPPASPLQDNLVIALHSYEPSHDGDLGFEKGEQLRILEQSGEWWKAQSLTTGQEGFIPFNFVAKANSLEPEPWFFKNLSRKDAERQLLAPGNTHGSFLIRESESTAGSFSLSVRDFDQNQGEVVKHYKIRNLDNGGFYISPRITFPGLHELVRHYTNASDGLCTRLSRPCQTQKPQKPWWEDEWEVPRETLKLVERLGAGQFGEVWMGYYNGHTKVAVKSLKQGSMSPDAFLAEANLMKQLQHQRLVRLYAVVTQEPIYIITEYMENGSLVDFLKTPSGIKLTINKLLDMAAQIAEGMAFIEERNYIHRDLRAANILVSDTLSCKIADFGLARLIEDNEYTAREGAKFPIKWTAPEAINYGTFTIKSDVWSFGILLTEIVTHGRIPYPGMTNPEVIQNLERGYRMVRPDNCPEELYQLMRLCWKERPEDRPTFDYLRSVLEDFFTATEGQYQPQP

[20] = Initial plasma concentration in C57BL6 mouse plasma at 0.5 mg/kg, iv single administration measured upto 24 hrs by LC-MS/MS analysis; format: ADME, organism-based
[21] = Metabolic stability in human liver microsomes assessed as stability measured after 30 mins by LC-MS/MS analysis; format: ADME, Microsome; conditions: read-out: Drug metabolism
[22] = AUC in C57BL6 mouse brain assessed as free brain drug at 0.5 mg/kg, iv single administration measured upto 24 hrs by LC-MS/MS analysis; format: ADME, organism-based; set-up: dose 0.5 mg/kg, time < 24 hrs, route iv; conditions: in vivo
[23] = Ratio of free drug brain AUC to free plasma AUC in C57BL6 mouse brain at 0.5 mg/kg, iv single administration measured upto 24 hrs by LC-MS/MS analysis; format: ADME, organism-based; conditions: read-out: K(p,uu,brain)
[24] = Half life in C57BL6 mouse brain at 0.5 mg/kg, iv single administration measured upto 24 hrs by LC-MS/MS analysis; format: ADME, organism-based
[25] = AUC in C57BL6 mouse brain at 0.5 mg/kg, iv single administration measured upto 24 hrs by LC-MS/MS analysis; format: ADME, organism-based; set-up: dose 0.5 mg/kg, time < 24 hrs, route iv
[26] = biological target: Interleukin-1 receptor-associated kinase 1 (Homo sapiens) (UniProt P51617); assay: Inhibition of IRAK1 (unknown origin) at 1 uM by ADP-Glo kinase assay relative to control
Chain of Interleukin-1 receptor-associated kinase 1 (Homo sapiens) (P51617 whole entry, looked up): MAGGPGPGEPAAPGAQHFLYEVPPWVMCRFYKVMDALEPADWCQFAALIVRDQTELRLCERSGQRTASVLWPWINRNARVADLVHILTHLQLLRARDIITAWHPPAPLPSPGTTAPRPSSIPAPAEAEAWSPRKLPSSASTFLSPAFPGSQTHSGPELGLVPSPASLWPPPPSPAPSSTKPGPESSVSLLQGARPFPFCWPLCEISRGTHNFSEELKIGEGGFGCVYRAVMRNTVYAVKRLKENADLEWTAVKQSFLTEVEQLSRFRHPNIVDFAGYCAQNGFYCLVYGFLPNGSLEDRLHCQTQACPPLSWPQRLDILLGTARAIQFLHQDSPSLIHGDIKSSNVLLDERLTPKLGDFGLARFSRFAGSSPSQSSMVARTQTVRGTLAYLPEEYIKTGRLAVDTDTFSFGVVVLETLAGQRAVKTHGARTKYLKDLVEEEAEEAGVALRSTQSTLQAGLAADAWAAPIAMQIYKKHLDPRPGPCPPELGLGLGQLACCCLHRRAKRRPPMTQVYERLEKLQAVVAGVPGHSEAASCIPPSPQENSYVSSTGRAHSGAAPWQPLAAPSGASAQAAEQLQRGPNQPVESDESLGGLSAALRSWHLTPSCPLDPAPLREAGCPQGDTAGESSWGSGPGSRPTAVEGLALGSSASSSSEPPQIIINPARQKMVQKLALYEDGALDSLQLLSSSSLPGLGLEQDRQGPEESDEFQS

[27] = biological target: T1, Interleukin-1 receptor-associated kinase 3 (Homo sapiens) (UniProt Q9Y616); assay: Inhibition of IRAK3 (unknown origin) at 1 uM by ADP-Glo kinase assay relative to control
T1 sequence (whole entry): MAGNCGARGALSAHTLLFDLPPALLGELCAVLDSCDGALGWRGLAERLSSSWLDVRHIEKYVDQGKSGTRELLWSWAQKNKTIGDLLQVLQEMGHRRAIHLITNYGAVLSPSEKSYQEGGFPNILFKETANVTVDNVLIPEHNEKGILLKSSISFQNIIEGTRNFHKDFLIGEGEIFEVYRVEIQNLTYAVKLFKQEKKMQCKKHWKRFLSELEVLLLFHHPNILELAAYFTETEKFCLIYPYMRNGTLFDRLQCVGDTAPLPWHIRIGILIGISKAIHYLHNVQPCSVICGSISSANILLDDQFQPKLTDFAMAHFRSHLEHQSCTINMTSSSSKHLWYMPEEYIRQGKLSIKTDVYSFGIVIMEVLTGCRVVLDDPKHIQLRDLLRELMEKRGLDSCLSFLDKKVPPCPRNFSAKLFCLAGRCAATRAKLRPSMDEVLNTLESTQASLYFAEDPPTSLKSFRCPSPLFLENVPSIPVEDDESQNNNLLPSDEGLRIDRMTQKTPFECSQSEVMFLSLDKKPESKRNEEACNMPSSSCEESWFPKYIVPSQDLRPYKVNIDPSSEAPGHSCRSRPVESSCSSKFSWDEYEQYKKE

[28] = Initial plasma concentration in C57BL6 mouse plasma at 1 mg/kg, iv single administration measured upto 24 hrs by LC-MS/MS analysis; format: ADME, organism-based
[29] = AUC (0 to last) in C57BL6 mouse brain at 1 mg/kg, iv single administration measured upto 24 hrs by LC-MS/MS analysis; format: ADME, organism-based; set-up: time < 24 hrs, dose 1 mg/kg, route iv
[30] = AUC in C57BL6 mouse brain at 1 mg/kg, iv single administration measured upto 24 hrs by LC-MS/MS analysis; format: ADME, organism-based; set-up: time < 24 hrs, dose 1 mg/kg, route iv
[31] = Ratio of total drug brain AUC to total plasma AUC in C57BL6 mouse brain at 1 mg/kg, iv single administration measured upto 24 hrs by LC-MS/MS analysis; format: ADME, organism-based
[32] = AUC in C57BL6 mouse brain assessed as free brain drug at 1 mg/kg, iv single administration measured upto 24 hrs by LC-MS/MS analysis; format: ADME, organism-based; set-up: time < 24 hrs, dose 1 mg/kg, route iv; conditions: in vivo
[33] = Half life in C57BL6 mouse brain at 1 mg/kg, iv single administration measured upto 24 hrs by LC-MS/MS analysis; format: ADME, organism-based

Row | Drug uptake [1] | Drug uptake [4] | Drug uptake [7] | Drug uptake [8] | remaining at […] [9] | remaining at 5 min [12] | remaining at 0.75 h [3] | Stability [5] | remaining at 5 min [6] | fraction unbound at 4 h [16] | remaining at 0.5 h [21] | C0 at 24 h [28] | AUC(0-t) at 24 h [29] | AUC at 24 h [30] | Kp at 24 h [31] | AUC [32] | half-life [33] | Compound | further results
1 | Active | Active | 4.2 % ID/g | 1.2 % ID/g |  |  |  |  |  |  |  |  |  |  |  |  |  | Cc1cc([18F])ncc1-c1ccc2nc(NC(=O)[C@@H]3C[C@@H]3F)sc2c1 | Stability [2]: 99.42%; Stability ([3]; in vivo, iv, 0.75 h): Stable; remaining at […] ([5]; Hsd:ICR (CD-1), plasma, read-out: Stability): 91%; Stability ([6]; in vivo, iv, 5 min): Stable
2 | Active | Active | 1.1 % ID/g | 0.2 % ID/g | 33% | 88% | 18% | Unstable | 64% |  |  |  |  |  |  |  |  | O=C(Nc1cn2cc(-c3cccc(F)c3OCC[18F])ccc2n1)[C@@H]1C[C@@H]1F | 
3 |  |  |  |  |  |  |  |  |  | 0.0734 | < 30% | 597 ng/mL | 597 ng·h/mL | 182 ng·h/mL | 0.31 | 5 ng·h/mL | 12 min | O=C(Nc1cn2cc(-c3ccccc3CCF)ccc2n1)[C@@H]1C[C@@H]1F | 

The remaining lines, values behind:

Row | Compound | Drug uptake [1] | Drug uptake [4] | Drug uptake [7] | Drug uptake [8] | remaining at […] [9] | remaining at 5 min [12] | remaining at 0.75 h [3] | Stability [5] | remaining at 5 min [6] | fraction unbound at 4 h [16] | remaining at 0.5 h [21] | C0 at 24 h [28] | AUC(0-t) at 24 h [29] | AUC at 24 h [30] | Kp at 24 h [31] | AUC [32] | half-life [33] | further results
4 | O=C(Nc1cn2cc(-c3ccccc3CC[18F])ccc2n1)[C@@H]1C[C@@H]1F | Active | Active | 3.1 % ID/g | 0.3 % ID/g | 8.5% | 93% | 13% | Unstable | 72% |  |  |  |  |  |  |  |  | Drug uptake [10]: 2.7 % ID/g; Drug uptake [11]: 1.6 % ID/g; Drug uptake [13]: Active
5 | Cc1cc(F)ncc1-c1ccc2nc(NC(=O)[C@@H]3C[C@@H]3F)sc2c1 |  |  |  |  |  |  |  |  |  | 0.0192 | < 30% |  |  |  |  |  |  | Kp at 24 h [14]: 0.49; AUC(0-t) at 24 h [15]: 3380 ng·h/mL; inhibition [17]: > 80%; inhibition [18]: > 80%; inhibition [19]: > 80%; C0 at 24 h [20]: 1580 ng/mL; AUC [22]: 10 ng·h/mL; Kp uu at 24 h [23]: 0.15; half-life [24]: 540 min; AUC at 24 h [25]: 1670 ng·h/mL; inhibition [26]: > 80%; inhibition [27]: > 80%
6 | O=C(Nc1cn2cc(-c3cccc(F)c3OCCF)ccc2n1)[C@@H]1C[C@@H]1F |  |  |  |  |  |  |  |  |  | 0.0692 | < 30% | 536 ng/mL | 536 ng·h/mL | 112 ng·h/mL | 0.21 | 4 ng·h/mL | 30 min | 
